From ChEMBL document CHEMBL4334516, “Kinase Chemodiversity from the Arctic: The Breitfussins” (J Med Chem, 2019)

Legend:
[1] = target: T1, Mitogen-activated protein kinase kinase kinase 7 (Homo sapiens, UniProt O43318); test: Inhibition of TAK1 (unknown origin) by [33P]-ATP filter binding kinase assay
T1 sequence (O43318 whole entry): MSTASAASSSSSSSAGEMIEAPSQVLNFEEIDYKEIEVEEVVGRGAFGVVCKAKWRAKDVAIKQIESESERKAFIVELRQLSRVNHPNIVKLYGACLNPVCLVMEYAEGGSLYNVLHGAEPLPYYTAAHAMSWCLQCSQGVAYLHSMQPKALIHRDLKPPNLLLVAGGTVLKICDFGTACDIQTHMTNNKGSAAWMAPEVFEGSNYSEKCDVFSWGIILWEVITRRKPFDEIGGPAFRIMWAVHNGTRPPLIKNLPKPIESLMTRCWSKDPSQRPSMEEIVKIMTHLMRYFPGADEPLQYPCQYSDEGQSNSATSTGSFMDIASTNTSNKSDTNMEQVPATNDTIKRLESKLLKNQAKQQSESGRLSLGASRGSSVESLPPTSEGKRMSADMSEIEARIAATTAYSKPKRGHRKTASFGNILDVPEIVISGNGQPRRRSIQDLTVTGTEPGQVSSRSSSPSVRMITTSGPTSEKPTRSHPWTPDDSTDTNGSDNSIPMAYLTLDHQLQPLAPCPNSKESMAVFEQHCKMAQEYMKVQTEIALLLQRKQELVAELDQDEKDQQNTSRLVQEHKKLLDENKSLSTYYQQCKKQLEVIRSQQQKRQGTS

[2] = target: Serine/threonine-protein kinase pim-2 (Homo sapiens, UniProt Q9P1W9); test: Inhibition of PIM2 (unknown origin) by [33P]-ATP filter binding kinase assay
[3] = target: T2, Serine/threonine-protein kinase 17A (Homo sapiens, UniProt Q9UEE5); test: Inhibition of Alexa Fluor 647-labeled ATP competitive kinase tracer binding to GST-tagged DRAK1 (unknown origin) by FRET based cell free ATP-competitive tracer displacement assay
T2 sequence (Q9UEE5 whole entry): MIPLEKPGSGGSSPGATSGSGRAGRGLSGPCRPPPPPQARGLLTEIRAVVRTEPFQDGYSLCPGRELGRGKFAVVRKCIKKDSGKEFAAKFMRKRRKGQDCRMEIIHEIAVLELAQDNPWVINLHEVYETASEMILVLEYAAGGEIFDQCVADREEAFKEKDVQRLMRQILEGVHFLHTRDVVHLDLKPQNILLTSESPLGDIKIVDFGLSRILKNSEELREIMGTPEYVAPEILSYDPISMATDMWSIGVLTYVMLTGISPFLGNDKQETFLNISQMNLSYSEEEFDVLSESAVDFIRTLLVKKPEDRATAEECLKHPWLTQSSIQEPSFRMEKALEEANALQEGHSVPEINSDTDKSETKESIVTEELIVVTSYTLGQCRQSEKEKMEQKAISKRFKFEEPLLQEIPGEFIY

[4] = tested on: MRC5; test: Cytotoxicity in human MRC5 cells assessed as reduction in cell viability incubated for 72 hrs by MTS assay; assay type: cell-based; conditions: MRC5, 72 h
[5] = target: Aurora kinase B (Homo sapiens, UniProt Q96GD4); test: Inhibition of Aurora B (unknown origin) by [33P]-ATP filter binding kinase assay
[6] = target: Mitogen-activated protein kinase kinase kinase 11 (Homo sapiens, UniProt Q16584); test: Inhibition of MLK3 (unknown origin) by [33P]-ATP filter binding kinase assay
[7] = target: Serine/threonine-protein kinase pim-3 (Homo sapiens, UniProt Q86V86); test: Inhibition of PIM3 (unknown origin) by [33P]-ATP filter binding kinase assay
[8] = tested on: A2058; test: Cytotoxicity in human A2058 cells assessed as reduction in cell viability incubated for 72 hrs by MTS assay; assay type: functional, cell-based; conditions: A2058, 72 h
[9] = target: T3, Aurora kinase A (Homo sapiens, UniProt O14965); test: Inhibition of Aurora A (unknown origin) by [33P]-ATP filter binding kinase assay
T3 sequence (O14965 whole entry): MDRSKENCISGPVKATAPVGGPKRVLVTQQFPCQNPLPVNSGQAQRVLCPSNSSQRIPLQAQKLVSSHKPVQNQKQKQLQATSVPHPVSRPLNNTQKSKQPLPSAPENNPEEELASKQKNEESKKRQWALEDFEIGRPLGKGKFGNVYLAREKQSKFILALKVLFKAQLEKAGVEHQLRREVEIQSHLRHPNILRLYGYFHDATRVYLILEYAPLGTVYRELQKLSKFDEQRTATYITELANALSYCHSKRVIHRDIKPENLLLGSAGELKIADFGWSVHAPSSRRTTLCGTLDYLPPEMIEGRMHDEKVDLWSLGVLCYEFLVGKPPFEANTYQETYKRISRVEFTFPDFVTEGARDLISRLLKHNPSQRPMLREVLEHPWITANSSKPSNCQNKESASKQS

[10] = target: Mitogen-activated protein kinase kinase kinase 9 (Homo sapiens, UniProt P80192); test: Inhibition of MLK1 (unknown origin) by [33P]-ATP filter binding kinase assay
[11] = target: Dual specificity tyrosine-phosphorylation-regulated kinase 1A (Homo sapiens, UniProt Q13627); test: Inhibition of DYRK1A (unknown origin) by [33P]-ATP filter binding kinase assay
[12] = tested on: MDA-MB-468; test: Cytotoxicity in human MDA-MB-468 cells assessed as reduction in cell viability incubated for 72 hrs by MTS assay; assay type: functional, cell-based; conditions: MDA-MB-468, 72 h
[13] = tested on: MOLT-4; test: Cytotoxicity in human MOLT4 cells assessed as reduction in cell viability incubated for 72 hrs by MTS assay; assay type: functional, cell-based; conditions: MOLT-4, 72 h
[14] = target: Receptor-interacting serine/threonine-protein kinase 2 (Homo sapiens, UniProt O43353); test: Inhibition of RIPK2 (unknown origin) by [33P]-ATP filter binding kinase assay
[15] = tested on: HT-29; test: Cytotoxicity in human HT-29 cells assessed as reduction in cell viability incubated for 72 hrs by MTS assay; assay type: functional, cell-based; conditions: HT-29, 72 h
[16] = target: T4, Serine/threonine-protein kinase 17B (Homo sapiens, UniProt O94768); test: Inhibition of Alexa Fluor 647-labeled ATP competitive kinase tracer binding to GST-tagged DRAK2 (unknown origin) by FRET based cell free ATP-competitive tracer displacement assay
T4 sequence (O94768 whole entry): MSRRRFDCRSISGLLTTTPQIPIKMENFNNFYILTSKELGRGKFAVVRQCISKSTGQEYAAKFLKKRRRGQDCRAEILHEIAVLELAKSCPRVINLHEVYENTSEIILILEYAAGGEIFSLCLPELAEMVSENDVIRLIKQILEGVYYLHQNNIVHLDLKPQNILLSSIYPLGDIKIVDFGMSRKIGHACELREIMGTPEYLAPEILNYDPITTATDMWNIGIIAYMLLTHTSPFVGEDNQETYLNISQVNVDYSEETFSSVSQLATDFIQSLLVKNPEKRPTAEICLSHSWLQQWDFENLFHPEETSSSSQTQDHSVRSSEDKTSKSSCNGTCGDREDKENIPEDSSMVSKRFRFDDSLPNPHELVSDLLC

Aurora kinase B, sequence (Q96GD4 whole entry): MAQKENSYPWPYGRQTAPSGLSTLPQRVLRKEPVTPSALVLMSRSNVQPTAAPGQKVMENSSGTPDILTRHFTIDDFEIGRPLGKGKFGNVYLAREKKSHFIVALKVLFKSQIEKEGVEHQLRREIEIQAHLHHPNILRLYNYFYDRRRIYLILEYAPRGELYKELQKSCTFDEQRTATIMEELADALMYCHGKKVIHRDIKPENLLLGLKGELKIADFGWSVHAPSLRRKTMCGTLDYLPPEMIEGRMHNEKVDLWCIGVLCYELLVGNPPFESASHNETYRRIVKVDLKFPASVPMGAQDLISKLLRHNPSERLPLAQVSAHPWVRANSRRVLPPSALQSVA
Mitogen-activated protein kinase kinase kinase 9, sequence (P80192 whole entry): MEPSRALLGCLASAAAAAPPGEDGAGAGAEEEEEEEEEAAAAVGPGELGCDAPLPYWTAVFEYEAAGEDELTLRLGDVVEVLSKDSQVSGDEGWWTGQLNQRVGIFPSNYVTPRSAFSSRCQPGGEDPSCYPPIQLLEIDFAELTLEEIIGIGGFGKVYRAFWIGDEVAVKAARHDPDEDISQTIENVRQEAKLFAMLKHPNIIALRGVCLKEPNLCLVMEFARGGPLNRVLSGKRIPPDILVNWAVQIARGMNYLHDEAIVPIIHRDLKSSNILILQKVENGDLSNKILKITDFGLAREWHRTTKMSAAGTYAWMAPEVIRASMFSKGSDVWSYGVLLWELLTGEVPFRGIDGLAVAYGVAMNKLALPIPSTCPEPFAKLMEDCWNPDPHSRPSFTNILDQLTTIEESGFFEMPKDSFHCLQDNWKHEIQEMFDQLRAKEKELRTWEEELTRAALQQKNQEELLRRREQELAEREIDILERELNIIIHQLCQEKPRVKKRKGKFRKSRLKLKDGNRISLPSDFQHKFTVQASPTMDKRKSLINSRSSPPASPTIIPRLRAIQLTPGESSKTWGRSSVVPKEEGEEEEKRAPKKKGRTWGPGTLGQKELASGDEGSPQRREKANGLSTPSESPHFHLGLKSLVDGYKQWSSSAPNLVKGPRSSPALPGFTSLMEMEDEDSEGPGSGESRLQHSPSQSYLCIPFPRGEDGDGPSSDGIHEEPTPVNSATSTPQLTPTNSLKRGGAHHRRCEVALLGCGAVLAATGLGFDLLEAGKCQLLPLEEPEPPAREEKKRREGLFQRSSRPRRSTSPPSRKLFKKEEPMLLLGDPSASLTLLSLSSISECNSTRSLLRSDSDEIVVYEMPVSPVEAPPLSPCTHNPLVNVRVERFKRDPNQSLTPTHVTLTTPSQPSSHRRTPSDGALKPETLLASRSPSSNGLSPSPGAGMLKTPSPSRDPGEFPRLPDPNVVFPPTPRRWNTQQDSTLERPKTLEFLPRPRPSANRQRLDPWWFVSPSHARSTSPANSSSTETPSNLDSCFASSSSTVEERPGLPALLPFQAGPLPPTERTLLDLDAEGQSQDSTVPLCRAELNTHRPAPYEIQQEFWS
Mitogen-activated protein kinase kinase kinase 11, sequence (Q16584 whole entry): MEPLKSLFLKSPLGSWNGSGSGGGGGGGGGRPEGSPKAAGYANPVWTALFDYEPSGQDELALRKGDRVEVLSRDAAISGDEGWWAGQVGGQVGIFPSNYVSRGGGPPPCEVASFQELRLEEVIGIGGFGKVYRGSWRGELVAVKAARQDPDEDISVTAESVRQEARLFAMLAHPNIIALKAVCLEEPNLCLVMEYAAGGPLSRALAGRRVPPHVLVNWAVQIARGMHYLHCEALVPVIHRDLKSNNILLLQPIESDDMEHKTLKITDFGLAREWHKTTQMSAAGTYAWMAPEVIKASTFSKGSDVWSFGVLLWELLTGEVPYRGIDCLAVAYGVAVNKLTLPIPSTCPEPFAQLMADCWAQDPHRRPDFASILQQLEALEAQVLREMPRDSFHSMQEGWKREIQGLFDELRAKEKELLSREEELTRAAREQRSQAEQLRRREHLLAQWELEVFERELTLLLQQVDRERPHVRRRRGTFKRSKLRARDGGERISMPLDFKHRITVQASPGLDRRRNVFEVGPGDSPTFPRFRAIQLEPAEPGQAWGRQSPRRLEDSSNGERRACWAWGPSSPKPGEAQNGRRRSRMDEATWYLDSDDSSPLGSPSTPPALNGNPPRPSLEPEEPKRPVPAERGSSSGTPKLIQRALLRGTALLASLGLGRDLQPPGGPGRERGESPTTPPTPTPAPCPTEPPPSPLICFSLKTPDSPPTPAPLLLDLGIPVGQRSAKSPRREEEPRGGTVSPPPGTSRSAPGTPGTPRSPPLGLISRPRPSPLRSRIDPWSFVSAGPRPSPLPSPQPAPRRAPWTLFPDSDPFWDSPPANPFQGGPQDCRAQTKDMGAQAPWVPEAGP
Serine/threonine-protein kinase pim-2, sequence (Q9P1W9 whole entry): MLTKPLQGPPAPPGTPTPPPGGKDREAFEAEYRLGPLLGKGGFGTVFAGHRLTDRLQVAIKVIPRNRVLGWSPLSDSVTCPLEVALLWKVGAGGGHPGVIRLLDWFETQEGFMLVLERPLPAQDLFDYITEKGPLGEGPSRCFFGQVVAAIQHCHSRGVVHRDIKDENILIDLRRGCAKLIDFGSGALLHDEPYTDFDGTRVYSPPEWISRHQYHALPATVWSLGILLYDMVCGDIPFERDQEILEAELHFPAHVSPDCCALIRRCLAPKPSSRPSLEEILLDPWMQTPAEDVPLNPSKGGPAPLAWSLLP
Receptor-interacting serine/threonine-protein kinase 2, sequence (O43353 whole entry): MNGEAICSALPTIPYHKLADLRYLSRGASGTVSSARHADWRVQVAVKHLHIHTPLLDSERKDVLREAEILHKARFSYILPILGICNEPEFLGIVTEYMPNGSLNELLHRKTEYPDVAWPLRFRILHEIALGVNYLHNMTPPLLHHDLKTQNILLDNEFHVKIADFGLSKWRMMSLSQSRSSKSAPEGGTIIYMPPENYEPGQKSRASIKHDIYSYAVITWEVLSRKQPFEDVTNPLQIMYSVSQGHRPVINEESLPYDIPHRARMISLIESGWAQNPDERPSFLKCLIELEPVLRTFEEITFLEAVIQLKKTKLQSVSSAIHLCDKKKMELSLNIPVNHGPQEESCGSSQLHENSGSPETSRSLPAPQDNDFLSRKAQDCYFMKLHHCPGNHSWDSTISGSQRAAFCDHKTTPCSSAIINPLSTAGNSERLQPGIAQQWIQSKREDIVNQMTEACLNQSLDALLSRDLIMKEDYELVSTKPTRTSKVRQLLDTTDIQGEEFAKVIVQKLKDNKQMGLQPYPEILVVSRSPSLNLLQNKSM

Which results are given for `COc1cc(Br)cc2[nH]cc(-c3cnc(-c4ccc[nH]4)o3)c12`?
IC50 [1]: 1 µM; IC50 [2]: 22 µM; IC50 [3]: 9.6 µM; IC50 [4]: > 10 µM; IC50 [5]: 0.9 µM; IC50 [6]: 0.5 µM; IC50 [7]: 3.7 µM; IC50 [8]: > 10 µM; IC50 [9]: > 10 µM; IC50 [10]: 0.9 µM; IC50 [11]: > 10 µM; IC50 [12]: > 10 µM; IC50 [13]: > 10 µM; IC50 [14]: > 10 µM; IC50 [15]: > 10 µM; IC50 [16]: > 10 µM

`COc1cc2c(-c3cnc(-c4ccc[nH]4)o3)c[nH]c2cc1Br` was tested. Which IC50 [1] did it give?
Its IC50 is 1.2 µM.

What about the IC50 [2] of the same compound?
Its IC50 is 11 µM.

And the IC50 [4]?
The IC50 was 7.1 µM.

And the IC50 [5]?
The IC50 was 0.8 µM.

What about the IC50 [6] of the same compound?
Its IC50 is 0.6 µM.

What about the IC50 [7] of the same compound?
Its IC50 is 1.8 µM.

And the IC50 [8]?
The IC50 was over 10 µM.

And the IC50 [9]?
The IC50 was 22 µM.

What about the IC50 [10] of the same compound?
The IC50 was 0.6 µM.

What about the IC50 [12] of the same compound?
The IC50 was over 10 µM.

What about the IC50 [13] of the same compound?
The IC50 was 9.9 µM.

And the IC50 [14]?
The IC50 was 1.1 µM.

What about the IC50 [15] of the same compound?
The IC50 was 7.1 µM.

What about the IC50 [16] of the same compound?
The IC50 was 9.8 µM.

`COc1cc(Br)cc2[nH]cc(-c3cnc(-c4ccc(Br)[nH]4)o3)c12` was tested. Which IC50 [1] did it give?
Its IC50 is over 10 µM.

And the IC50 [2]?
Its IC50 is over 10 µM.

What about the IC50 [3] of the same compound?
Its IC50 is over 10 µM.

And the IC50 [4]?
The IC50 was over 10 µM.

What about the IC50 [5] of the same compound?
The IC50 was over 10 µM.

And the IC50 [6]?
Its IC50 is over 10 µM.

And the IC50 [7]?
The IC50 was over 10 µM.

What about the IC50 [8] of the same compound?
Its IC50 is over 10 µM.

And the IC50 [9]?
The IC50 was over 10 µM.

What about the IC50 [10] of the same compound?
Its IC50 is over 10 µM.

And the IC50 [11]?
The IC50 was over 10 µM.

And the IC50 [12]?
The IC50 was over 10 µM.

And the IC50 [13]?
Its IC50 is over 10 µM.

And the IC50 [14]?
The IC50 was over 10 µM.

And the IC50 [15]?
Its IC50 is over 10 µM.

And the IC50 [16]?
The IC50 was over 10 µM.

With `COc1cc(Br)cc2[nH]cc(-c3oc(-c4ccc[nH]4)nc3I)c12` as the compound, how does the IC50 [1] read?
The IC50 was over 10 µM.

What about the IC50 [2] of the same compound?
Its IC50 is over 10 µM.

What about the IC50 [3] of the same compound?
The IC50 was over 10 µM.

And the IC50 [4]?
The IC50 was over 10 µM.

What about the IC50 [5] of the same compound?
Its IC50 is over 10 µM.

What about the IC50 [6] of the same compound?
Its IC50 is over 10 µM.

And the IC50 [7]?
Its IC50 is over 10 µM.

What about the IC50 [8] of the same compound?
Its IC50 is over 10 µM.

And the IC50 [9]?
Its IC50 is over 10 µM.

What about the IC50 [10] of the same compound?
Its IC50 is over 10 µM.

What about the IC50 [11] of the same compound?
The IC50 was over 10 µM.

And the IC50 [12]?
The IC50 was over 10 µM.

And the IC50 [13]?
Its IC50 is over 10 µM.

And the IC50 [14]?
Its IC50 is over 10 µM.

And the IC50 [15]?
The IC50 was over 10 µM.

And the IC50 [16]?
The IC50 was over 10 µM.
